Measured values taken from patent publication US20220089592A1, “IMIDAZO[1,2-A]PYRIDINYL DERIVATIVES AS IRAK4 INHIBITORS” (priority 2019, published 2022).

Columns and labels:
IRAK4 [1] = molecular target: T1, IRAK4 (Homo sapiens, UniProt Q9NWZ3); assay: 2-hour 1 mM ATP IRAK4 Biochemical assay (as above, but with 100 pM IRAK4 and 1 mM ATP); conditions: IRAK4 MSD BIOCHEMICAL (1 mM ATP) IC50 (μM), 100 pM IRAK4, 2 hours
T1 sequence (Q9NWZ3 1-460): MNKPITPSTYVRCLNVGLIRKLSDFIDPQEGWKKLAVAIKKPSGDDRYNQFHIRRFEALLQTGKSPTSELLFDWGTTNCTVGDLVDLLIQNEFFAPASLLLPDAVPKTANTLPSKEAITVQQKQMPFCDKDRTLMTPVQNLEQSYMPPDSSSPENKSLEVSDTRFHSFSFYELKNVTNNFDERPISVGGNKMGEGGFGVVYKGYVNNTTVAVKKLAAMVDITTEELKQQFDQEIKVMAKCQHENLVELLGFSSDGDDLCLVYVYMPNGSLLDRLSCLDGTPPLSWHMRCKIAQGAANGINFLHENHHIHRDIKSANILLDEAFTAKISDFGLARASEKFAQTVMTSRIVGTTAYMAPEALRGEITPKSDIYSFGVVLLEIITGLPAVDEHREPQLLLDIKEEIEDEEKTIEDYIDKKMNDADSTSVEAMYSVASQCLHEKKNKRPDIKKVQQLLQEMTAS
In short: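 MSD electrochemiluminescence read-out: biotinylated peptide product bound to streptavidin plates, probed with anti-P-Thr rabbit antibody and Sulfo-Tag goat anti-rabbit. Kinase reaction used 1 mM ATP and 100 pM IRAK4 over 2 hours before EDTA quench.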

IRAK4 [2] = molecular target: T1, IRAK4; assay: 2-hour 10 μM ATP Biochemical Assay (MesoScale Detection format; IRAK4 phosphorylation of biotin labeled IRAK1 activation loop peptide); conditions: IRAK4 MSD BIOCHEMICAL (10 μM ATP) IC50 (μM), 1 nM IRAK4, 2 hours
In short: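 Electrochemiluminescent MSD readout: after streptavidin capture, phosphothreonine on the biotin-labelled IRAK1 activation-loop peptide detected by rabbit antibody and Sulfo-Tag secondary. Phosphorylation ran 2 h with 10 μM ATP before EDTA quench.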

Row | IC50 (IRAK4 [1]) [µM] | IC50 (IRAK4 [2]) [µM] | Structure (SMILES)
1 | 0.001 | 0.001 | N#CC1CCC(Oc2cc3nc(C4CCOCC4)cn3cc2NC(=O)c2cccc(C(F)F)n2)C1 (stereo not drawn) [Example 179, N-(7-((3-cyanocyclopentyl)oxy)-2-(tetrahydro-2H-pyran-4-yl)imidazo[1,2-a]pyridin-6-yl)-6-(difluoromethyl)picolinamide]
2 | 0.014 | 0.003 | CCOc1nc2nc(C3CC3)cn2cc1NC(=O)c1cccc(C(F)F)n1 [Example 243, N-(2-cyclopropyl-7-ethoxyimidazo[1,2-a]pyrimidin-6-yl)-6-(difluoromethyl)picolinamide]
3 | 0.001 | 0.001 | CCOc1cc2nc(C3CCCC(OC)C3)cn2cc1NC(=O)c1cccc(C(F)F)n1 (stereo not drawn) [Example 256, 6-(difluoromethyl)-N-(7-ethoxy-2-(3-methoxycyclohexyl)imidazo[1,2-a]pyridin-6-yl)picolinamide]
4 | 0.025 | 0.011 | CCOc1cc2nc(C(=O)N(C)C)cn2cc1NC(=O)c1cccc(C(F)F)n1 [Example 108, 6-(6-(difluoromethyl)picolinamido)-7-ethoxy-N,N-dimethylimidazo[1,2-a]pyridine-2-carboxamide]
5 | 0.003 | 0.002 | CCOc1cc2nc(C3CCOC3)cn2cc1NC(=O)c1cccc(C(F)(F)F)n1 (stereo not drawn) [Example 59, N-(7-ethoxy-2-(tetrahydrofuran-3-yl)imidazo[1,2-a]pyridin-6-yl)-6-(trifluoromethyl)picolinamide]
6 | 0.003 | 0.002 | CCOc1cc2nc(C3(F)CC3)cn2cc1NC(=O)c1cccc(C(F)F)n1 [Example 111, 6-(difluoromethyl)-N-(7-ethoxy-2-(1-fluorocyclopropyl)imidazo[1,2-a]pyridin-6-yl)picolinamide]
7 | 0.002 | 0.001 | CCOc1cc2nc([C@H]3C[C@@H](OC)C3)cn2cc1NC(=O)c1cccc(C(F)F)n1 [Example 115, 6-(difluoromethyl)-N-(7-ethoxy-2-((1s,3s)-3-methoxycyclobutyl)imidazo[1,2-a]pyridin-6-yl)picolinamide]
8 | 0.001 | 0.001 | CCOc1cc2nc([C@]34CCOC[C@H]3C4)cn2cc1NC(=O)c1cccc(C(F)F)n1 (relative stereo) [Example 249, N-(2-((1S*,6R*)-3-oxabicyclo[4.1.0]heptan-6-yl)-7-ethoxyimidazo[1,2-a]pyridin-6-yl)-6-(difluoromethyl)picolinamide]
9 | 0.001 | 0.001 | CCOc1cc2nc([C@H]3C[C@H](O)C3)cn2cc1NC(=O)c1cccc(C(F)F)n1 [Example 96]
10 | 0.051 | 0.006 | CCOc1cc2nc(CC3CCOC3)cn2cc1NC(=O)c1coc(C)n1 (stereo not drawn) [Example 159, N-(7-ethoxy-2-((tetrahydrofuran-3-yl)methyl)imidazo[1,2-a]pyridin-6-yl)-2-methyloxazole-4-carboxamide]
11 | 0.026 | 0.002 | CCOc1cc2nc(CC3CCOC3)cn2cc1NC(=O)c1ccc2c(n1)CCC2 (stereo not drawn) [Example 369, N-(7-ethoxy-2-((tetrahydrofuran-3-yl)methyl)imidazo[1,2-a]pyridin-6-yl)-6,7-dihydro-5H-cyclopenta[b]pyridine-2-carboxamide]
12 | 0.029 | 0.006 | COCCOc1cc2nc(C3CC3)cn2cc1NC(=O)c1cccc(C(F)F)n1 [Example 101, N-(2-cyclopropyl-7-(2-methoxyethoxy)imidazo[1,2-a]pyridin-6-yl)-6-(difluoromethyl)picolinamide]
13 | 0.017 | 0.004 | CCOc1cc2nc(Cn3ccccc3=O)cn2cc1NC(=O)c1cccc(C(F)F)n1 [Example 87, 6-(difluoromethyl)-N-(7-ethoxy-2-((2-oxopyridin-1(2H)-yl)methyl)imidazo[1,2-a]pyridin-6-yl)picolinamide]
14 | 0.003 | 0.001 | CCOc1cc2nc(C3CCOCC3)cn2cc1NC(=O)c1ccn(C(F)F)n1 [Example 230, 1-(difluoromethyl)-N-(7-ethoxy-2-(tetrahydro-2H-pyran-4-yl)imidazo[1,2-a]pyridin-6-yl)-1H-pyrazole-3-carboxamide]
15 | 0.007 | 0.002 | CC1(COc2cc3nc(CC4CCOC4)cn3cc2NC(=O)c2cccc(C(F)(F)F)n2)COC1 (stereo not drawn) [Example 163, N-(7-((3-methyloxetan-3-yl)methoxy)-2-((tetrahydrofuran-3-yl)methyl)imidazo[1,2-a]pyridin-6-yl)-6-(trifluoromethyl)picolinamide]
16 | 0.014 | 0.004 | CC1(COc2cc3nc(C4CC4)cn3cc2NC(=O)c2cccc(C(F)F)n2)COC1 [Example 50, N-(2-cyclopropyl-7-((3-methyloxetan-3-yl)methoxy)imidazo[1,2-a]pyridin-6-yl)-6-(difluoromethyl)picolinamide]
17 | 0.004 | 0.002 | O=C(Nc1cn2cc(C3CC3)nc2cc1N1CCN(CC(F)F)CC1)c1cccc(C(F)(F)F)n1 [Example 24, N-(2-cyclopropyl-7-(4-(2,2-difluoroethyl)piperazin-1-yl)imidazo[1,2-a]pyridin-6-yl)-6-(trifluoromethyl)picolinamide]
18 | 0.018 | 0.007 | CCOc1nc2nc(CC)cn2cc1NC(=O)c1cccc(C(F)F)n1 [Example 74, 6-(difluoromethyl)-N-(7-ethoxy-2-ethylimidazo[1,2-a]pyrimidin-6-yl)picolinamide]
19 | 0.009 | 0.006 | CCOc1cc2nc(C3CC3)cn2cc1NC(=O)c1cccc(C(F)F)n1 [Example 3, N-(2-cyclopropyl-7-ethoxyimidazo[1,2-a]pyridin-6-yl)-6-(difluoromethyl)picolinamide]
20 | 0.01 | 0.005 | O=C(Nc1cn2cc(C3CC3)nc2cc1OCc1ccccc1)c1cccc(C(F)F)n1 [Example 9, N-(7-(benzyloxy)-2-cyclopropylimidazo[1,2-a]pyridin-6-yl)-6-(difluoromethyl)picolinamide]
21 | 0.001 | 0.001 | CCOc1cc2nc(C3CCN(C(C)=O)C3)cn2cc1NC(=O)c1cccc(C(F)(F)F)n1 (stereo not drawn) [Example 69, N-(2-(1-acetylpyrrolidin-3-yl)-7-ethoxyimidazo[1,2-a]pyridin-6-yl)-6-(trifluoromethyl)picolinamide]
22 | 0.004 | 0.002 | CCOc1cc2nc(CC(F)CO)cn2cc1NC(=O)c1cccc(C(F)F)n1 (stereo not drawn) [Example 99, 6-(difluoromethyl)-N-(7-ethoxy-2-(2-fluoro-3-hydroxypropyl)imidazo[1,2-a]pyridin-6-yl)picolinamide]
23 | 0.001 | 0.001 | C[C@@H]1C[C@@H](Oc2cc3nc(C4CCOCC4)cn3cc2NC(=O)c2cccc(C(F)F)n2)CCO1 (relative stereo) [Example 186, 6-(difluoromethyl)-N-(7-(((2R*,4S*)-2-methyltetrahydro-2H-pyran-4-yl)oxy)-2-(tetrahydro-2H-pyran-4-yl)imidazo[1,2-a]pyridin-6-yl)picolinamide]
24 | 0.002 | 0.001 | CCOc1cc2nc(CCCO)cn2cc1NC(=O)c1cccc(C(F)F)n1 [Example 23, 6-(difluoromethyl)-N-(7-ethoxy-2-(3-hydroxypropyl)imidazo[1,2-a]pyridin-6-yl)picolinamide]
25 | 0.002 | 0.001 | CCOc1cc2nc(C34CC(C(F)F)(C3)C4)cn2cc1NC(=O)c1cccc(C(F)(F)F)n1 [Example 522, N-(2-(3-(difluoromethyl)bicyclo[1.1.1]pentan-1-yl)-7-ethoxyimidazo[1,2-a]pyridin-6-yl)-6-(trifluoromethyl)picolinamide 2,2,2-trifluoroacetate]
26 | 0.004 | 0.001 | CCOc1cc2nc(Cn3cncn3)cn2cc1NC(=O)c1cccc(C(F)F)n1 [Example 82, N-(2-((1H-1,2,4-triazol-1-yl)methyl)-7-ethoxyimidazo[1,2-a]pyridin-6-yl)-6-(difluoromethyl)picolinamide]
27 | 0.004 | 0.002 | CCOc1cc2nc(C3CC34CCOC4)cn2cc1NC(=O)c1cccc(C(F)F)n1 (mixture of isomers) [Example 171, 6-(difluoromethyl)-N-(7-ethoxy-2-(5-oxaspiro[2.4]heptan-1-yl)imidazo[1,2-a]pyridin-6-yl)picolinamide]
28 | 0.051 | 0.011 | CCOc1nc(NC(=O)c2cccc(OC)n2)cn2cc(C3CCOCC3)nc12 [Example 147, N-(8-ethoxy-2-(tetrahydro-2H-pyran-4-yl)imidazo[1,2-a]pyrazin-6-yl)-6-methoxypicolinamide]
29 | 0.019 | 0.005 | CCOc1cc2nc(C3CCOCC3)cn2cc1NC(=O)c1ccn(C(C)C)n1 [Example 206, N-(7-ethoxy-2-(tetrahydro-2H-pyran-4-yl)imidazo[1,2-a]pyridin-6-yl)-1-isopropyl-1H-pyrazole-3-carboxamide]
30 | 0.007 | 0.001 | CCOc1cc2nc(C3CCOCC3)cn2cc1NC(=O)c1csc(C(F)(F)F)n1 [Example 231, N-(7-ethoxy-2-(tetrahydro-2H-pyran-4-yl)imidazo[1,2-a]pyridin-6-yl)-2-(trifluoromethyl)thiazole-4-carboxamide]
